# In patent publication US20080176906A1, “Substituted Pyrrole Derivative” (Takeda Pharmaceutical Company Limited, priority 2004, published 2008):
# Changes are numbered by the printed parent chain.
# What was measured:
# [1] = target: T1, wild-type androgen receptor (AR) (Homo sapiens, UniProt P10275); experiment: AR binding inhibitory test (wild type); conditions: 1 μM compound, 3 nM miboleron, 4° C. for 3 hours, dextran/charcoal B/F separation; read-out: Inhibitory rate (%) at 1 μM, Wild type
# T1 sequence (P10275 1-920): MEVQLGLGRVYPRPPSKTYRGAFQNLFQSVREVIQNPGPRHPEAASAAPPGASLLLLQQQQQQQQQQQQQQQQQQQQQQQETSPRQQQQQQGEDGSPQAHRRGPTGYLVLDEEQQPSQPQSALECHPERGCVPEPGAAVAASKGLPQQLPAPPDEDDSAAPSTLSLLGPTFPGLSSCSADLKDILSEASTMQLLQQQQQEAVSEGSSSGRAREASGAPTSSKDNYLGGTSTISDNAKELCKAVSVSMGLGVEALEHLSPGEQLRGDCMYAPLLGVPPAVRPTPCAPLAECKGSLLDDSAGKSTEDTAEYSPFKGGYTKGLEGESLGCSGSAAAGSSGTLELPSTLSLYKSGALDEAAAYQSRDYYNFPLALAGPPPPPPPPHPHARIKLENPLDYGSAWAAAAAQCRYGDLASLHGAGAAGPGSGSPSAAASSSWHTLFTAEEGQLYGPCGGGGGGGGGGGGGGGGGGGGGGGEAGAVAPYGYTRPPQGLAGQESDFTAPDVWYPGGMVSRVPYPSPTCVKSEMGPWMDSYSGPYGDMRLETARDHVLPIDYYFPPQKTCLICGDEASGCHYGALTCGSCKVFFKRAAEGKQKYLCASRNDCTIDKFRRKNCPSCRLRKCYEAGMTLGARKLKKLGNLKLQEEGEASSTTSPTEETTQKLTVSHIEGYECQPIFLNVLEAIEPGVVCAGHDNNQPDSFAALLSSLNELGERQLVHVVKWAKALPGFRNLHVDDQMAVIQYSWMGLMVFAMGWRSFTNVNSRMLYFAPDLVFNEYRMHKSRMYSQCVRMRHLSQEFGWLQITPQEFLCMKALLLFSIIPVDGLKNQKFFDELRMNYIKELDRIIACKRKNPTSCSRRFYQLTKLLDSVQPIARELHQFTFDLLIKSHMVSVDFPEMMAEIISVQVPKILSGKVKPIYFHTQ
# Method: (§1) 3 nM miboleron and 1 μM of a compound was added to a solution containing a wild-type androgen receptor (AR) or an androgen receptor (AR) having a LNCaP type mutation, this was incubated at 4° C. for 3 hours, and B(Bound)/F(Free) separation was performed by a dextran/charcoal method. A label count of B was measured, and an inhibition rate of the compound was calculated.
# [2] = tested on: human prostate cancer cell LNCaP-FGC; experiment: Prostate specific antigen (PSA) production inhibition in prostate cancer cell; assay type: cell-based; conditions: 72 h, 1 μM compound, testosterone 1 ng/mL, three days, PSA in culture supernatant by ELISA, testosterone non-added group 100%, testosterone-added group 0%, read-out: PSA production Inhibitory rate (%) at 1 μM
# Method: A human prostate cancer cell LNCaP-FGC was inoculated on a 96-well plate at 5000 cells/100 μL/well and, on the next day, testosterone having the final concentration of 1 ng/mL and 1 μM of a compound were added. Three days after addition, the PSA concentration in the culture supernatant was measured by ELISA, and a PSA production inhibition rate was calculated, letting the rate of a testosterone non-added group to be 100%, and letting the rate of a testosterone-added group to be 0%.
# mutated AR (W741C) = target: T2, mutated AR (W741C) (Homo sapiens, UniProt P10275, W742C); experiment: AR transcription inhibition test (luciferase reporter in Cos-7); assay type: cell-based; conditions: 0.1 μM compound, DHT 0.04 μM, 24 hours, luciferase activity, relative to a control
# T2 construct: expressed in transfected cells; host or cells: Cos-7
# T2 sequence (P10275 1-920 W742C): T1 sequence (P10275 1-920) with W742C
# Method: 5,000,000 Cells of Cos-7 was inoculated on a flask, and cultured in a culturing solution (DMEM+10% Dextran Charcoal (DCC)-Fetal Bovine Serum (FBS)+2 mM glutamine) for 24 hours, and a vector DNA in which mutated AR (W741C) had been inserted, and a vector DNA in which a luciferase gene had been connected downstream of an androgen-responsive promoter were transfected by a liposome method. After two hours, the medium was exchanged, the cells were cultured for 3 hours, DHT (dihydrotestosterone) having the final concentration of 0.04 μM and an assessment compound having the final concentration of 0.1 μM were added, and the cells were cultured for 24 hours, and luciferase activity was measured to investigate AR transcription inhibition activity of the assessment compound.
# mouse prostate = experiment: Test of reduction in weight of mouse prostate; assay type: in vivo; conditions: 8 week old male mouse, drug non-addition 0%, castration 100%
# From the text: A rate of reduction in a prostate weight is shown in Table 5, letting at drug non-addition to be 0%, and letting at castration to be 100%.
# [3] = target: T3, androgen receptor (AR) having a LNCaP type mutation (Homo sapiens, UniProt P10275, T878A); experiment: AR binding inhibitory test (LNCaP type); conditions: 1 μM compound, 3 nM miboleron, 4° C. for 3 hours, dextran/charcoal B/F separation; read-out: Inhibitory rate (%) at 1 μM, LNCaP type
# T3 sequence (P10275 1-920 T878A): T1 sequence (P10275 1-920) with T878A
# Method: as §1
Structure (SMILES),inhibition at 1 µM [1] [%],inhibition at 1 µM [2] [%],AR transcription Inhibitory rate (%) at 0.1 μM (mutated AR (W741C)) [%],Reduction rate (%) of prostate weight (mouse prostate; orally 50 mg/kg/day for 7 days) [%],inhibition at 1 µM [3] [%],Reduction rate (%) of prostate weight (mouse prostate; orally 100 mg/kg/day (bicalutamide) for 7 days) [%]
"Cc1c(C#N)c(-c2ccc(C#N)cc2)c(C)n1Cc1cnc(Cl)c(CO)c1 [Compound 1, 1-{[6-Chloro-5-(hydroxymethyl)pyridin-3-yl]methyl}-4-(4-cyanophenyl)-2,5-dimethyl-1H-pyrrole-3-carbonitrile]",94,99,49,74,–,–
"CCc1c(C#N)c(-c2ccc(C#N)cc2)c(C)n1Cc1cnc(Cl)c(CO)c1 [Compound 2, 1-{[6-Chloro-5-(hydroxymethyl)pyridin-3-yl]methyl}-4-(4-cyanophenyl)-2-ethyl-5-methyl-1H-pyrrole-3-carbonitrile]",99,95,30,–,94,–
"CCCc1c(C#N)c(-c2ccc(C#N)cc2)c(C)n1Cc1cnc(Cl)c(CO)c1 [Compound 3, 1-{[6-Chloro-5-(hydroxymethyl)pyridin-3-yl]methyl}-4-(4-cyanophenyl)-5-methyl-2-propyl-1H-pyrrole-3-carbonitrile]",96,99,78,–,99,–
"Cc1c(-c2ccc(C#N)cc2)c(C#N)c(C2CC2)n1Cc1cnc(Cl)c(CO)c1 [Compound 5, 1-{[6-Chloro-5-(hydroxymethyl)pyridin-3-yl]methyl}-4-(4-cyanophenyl)-2-cyclopropyl-5-methyl-1H-pyrrole-3-carbonitrile]",98,99,78,–,96,–
"Cc1c(C#N)c(-c2ccc(C#N)cc2)c(C)n1Cc1ccc(Cl)c(CO)c1 [Compound 26, 1-[4-Chloro-3-(hydroxymethyl)benzyl]-4-(4-cyanophenyl)-2,5-dimethyl-1H-pyrrole-3-carbonitrile]",98,97,53,–,93,–
"Cc1c(C#N)c(-c2ccc(C#N)cc2)c(C)n1Cc1cnc(Cl)c(C(O)C(F)(F)F)c1 (centres unmarked) [Example 38, 1-{[6-Chloro-5-(2,2,2-trifluoro-1-hydroxyethyl)pyridin-3-yl]methyl}-4-(4-cyanophenyl)-2,5-dimethyl-1H-pyrrole-3-carbonitrile]",–,94,–,68,–,–
"Cc1cc(-c2ccc(C#N)cc2)c(C)n1Cc1cnc(Cl)c(CO)c1 [Example 46, 4-(1-{[6-Chloro-5-(hydroxymethyl)pyridin-3-yl]methyl}-2,5-dimethyl-1H-pyrrol-3-yl)benzonitrile]",86,95,–,–,89,–
"CCc1cc(-c2ccc(C#N)cc2)c(C)n1Cc1cnc(Cl)c(CO)c1 [Example 47, 4-(1-{[6-Chloro-5-(hydroxymethyl)pyridin-3-yl]methyl}-5-ethyl-2-methyl-1H-pyrrol-3-yl)benzonitrile]",50,–,–,–,81,–
"Cc1c(-c2ccc(C#N)cc2)cc(C2CC2)n1Cc1cnc(Cl)c(CO)c1 [Example 48, 4-(1-{[6-Chloro-5-(hydroxymethyl)pyridin-3-yl]methyl}-5-cyclopropyl-2-methyl-1H-pyrrol-3-yl)benzonitrile]",30,98,–,–,87,–
"CC(O)(CS(=O)(=O)c1ccc(F)cc1)C(=O)Nc1ccc(C#N)c(C(F)(F)F)c1 (centres unmarked) [bicalutamide, reference compound]",–,58,–,–,–,40
